Reference: patent US8569017B2, “Method for the preventing and/or treating IL-1 beta lung pathology in mammals by administering a uric acid reducing compound” (Centre National de la Recheche Scientifique (CNRS), priority 2008, dated 2013)
“Also recorded” adds a separate entry of the source.

Assays:
[1] = test system: lung inflammation upon intranasal crystals; assay: Exogenous uric acid crystals-induced lung inflammation and remodeling in mice; type: in vivo
Procedure: (§1) Bleomycin sulfate (200-300 μg or 10-15 mg/kg) from Bellon Laboratories (Montrouge, France) in saline, uric acid or allopurinol crystals (100-1000 μg or 5-50 mg/kg) in saline or saline alone are given through the airways by nasal instillation in a volume of 40 μt, under light ketamine-xylasine anaesthesia. The number of cells, chemokines, cytokines and TIMP-1 in the bronchoalveolar space and in the lung were evaluated as described (3). Allopurinol (Sigma-Aldrich) was injected at 500 μg or 25 mg/kg subcutaneously in 0.1-ml sterile NaCl, uricase (Fasturtec, Sanofi Synthelabo) given at 4 μg or 0.2 mg/kg by nasal instillation in 40 μt, at the time of bleomycin administration, at 6 and 9 h. In some experiments, the IL-1Ra (Anakinra, Amgen) was injected at 200 μg or 10 mg/kg subcutaneously in 0.1-ml sterile NaCl, at the time of MSU crystals administration, at 2 and 4 h.
Uric acid or allopurinol crystals were obtained by dissolving 1.68 mg of powder in 0.01 M NaOH preheated to 70° C. and added as required to maintain pH between 7.1 and 7.2. The solution was filtered and incubated at room temperature under slowly and continuously agitation, until crystals have formed. Crystals were washed twice with ethanol 100%, dried, autoclaved and kept sterile. The weight of dry crystals was determined under sterile conditions, crystals are resuspended in PBS by sonication and examined under phase microscopy.
(§2) Bleomycin sulfate (10 mg/kg) from Bellon Laboratories, uric acid or allopurinol crystals (5-50 mg/kg) in saline or vehicle alone were administered by intranasal instillation under light ketamine-xylasine anesthesia, and BAL and lung tissue assayed after 6 h (for uric acid crystal) or 24 h (for bleomycin) for markers of inflammation including cell recruitment and in particular neutrophil influx, chemokine and cytokine levels including KC, IL-6 and IL-1β and 14 days later for markers of tissue remodeling such as gelatinases MMP9 and MMP2 and their inhibitor TIMP-1. […] IL-1Ra (Anakinra, Amgen) was injected at 10 mg/kg subcutaneously.
(§3) After incision of the trachea, a plastic cannula was inserted and airspaces were washed using […] of PBS solution, heated to 37° C. The rib cage was then gently massaged to enable maximum cell collection. The fluid was collected by careful aspiration. […] The samples collected were dispatched in 2 fractions: the first one (1 ml corresponding to the 2 first lavages) was used for mediator measurement and the second one for the cell determination (4 ml). The first fraction was centrifuged (600 g for 10 min) and supernatant was fractionated and kept at −80° C. until mediator determination. The cell pellet was then resuspended in 0.4 ml PBS and, pooled with the second fraction and maintained at 4° C. until cell determination.
(§4) Total cell count was determined in BAL fluid using a particle counter (Z2 Coulter, Beckman Coulter). Differential cell counts were performed on cytospin preparations (Cytospin 3, Thermo Shandon) after staining with 4 min May-Grünwald stain (MG-1L, Sigma chemical, Saint Louis, USA) and 8 min in 95% Giemsa stain (GS-500, Sigma chemical, Saint Louis, USA). Differential cell counts were made on 100 cells using standard morphological criteria.
(§5) IL-1β, KC, IL-6 and TIMP-1 levels in BAL fluid or lung homogenate were determined using ELISA assay kits according to manufacturer's instructions (Mouse DuoSet, R&D system, Minneapolis, USA).

[2] = test system: bleomycin-induced lung inflammation; assay: Bleomycin-induced acute lung inflammation in mice (24 h); type: in vivo; conditions: for Neutrophil recruitment in BALF / IL-1β production in lung: allopurinol 25 mg/kg s.c.; for Neutrophil recruitment in BALF: uricase 0.2 mg/kg (0, 6, 9 h) or z-YVAD-fmk 10 mg/kg i.p. (0, 4, 8 h); for Bleomycin-induced (acute) inflammation, overall: 24 h after BLM i.n., treated vs vehicle; for KC production in lung / TIMP-1 production in lung / IL-1β production in lung: lung homogenates 24 h after BLM 10 mg/kg i.n.; for KC production in lung / TIMP-1 production in lung: allopurinol 25 mg/kg s.c. or z-YVAD-fmk 10 mg/kg i.p.; for IL-1β production in lung: uricase 0.2 mg/kg or z-YVAD-fmk 10 mg/kg i.p.; for Uric acid levels in lung: allopurinol 25 mg/kg s.c. or uricase 0.2 mg/kg i.p. or i.n. at 0, 6 and 9 h; for Efficacy, repeated administrations versus higher doses: dose optimisation
Procedure: as §1, §2, §3
After BAL was performed, the whole lung removed and placed inside a microtube (Lysing matrix D, Q Bio Gene, Illkrich, France) with 1 ml of PBS, total lung tissue extract was prepared using a Fastprep® system (FP120, Q Bio Gene, Illkrich, France), the extract was then centrifuged and the supernatant stored at −80° C. before mediator measurement, MPO or collagen assay with Sircol Collagen Assay (France Biochem Division, France).
as §4, §5
Uric acid concentration was determined in bronchoalveolar lavages and lung homogenates using Amplex® Red Uric Acid/Uricase Assay Kit (Molecular Probe, Eugene). Briefly, uricase catalyzes the conversion of uric acid to allantoin, hydrogen peroxide (H2O2) and carbon dioxide. In the presence of horseradish peroxidase (HRP), H2O2 reacts stoichiometrically with Amplex Red reagent to generate the red-fluorescent oxidation product, resorufin, measured spectrophotometrically.

[3] = test system: bleomycin-induced lung inflammation; conditions: IL-1 receptor antagonist; published data (ref. 3), FIG. 1; cited from earlier work
[4] = test system: bleomycin-induced repair and fibrosis; assay: Bleomycin-induced late inflammation, repair and fibrosis in mice (day 8/14); type: in vivo; conditions: for Lung fibrotic score (fibrosis with thickening of alveolar septae and inflammation, semi-quantitative) / Alveolar wall destruction, collagen deposition and lung fibrosis on lung sections / Pro-MMP-9 and active MMP-2 gelatinase activities in BALF (zymography) / Pulmonary alpha-I collagen mRNA content: day 14 after BLM 5 mg/kg i.n.; for Lung fibrotic score (fibrosis with thickening of alveolar septae and inflammation, semi-quantitative): Ashcroft score, two observers, vs B6 mice; for Alveolar wall destruction, collagen deposition and lung fibrosis on lung sections: CAB staining; for Pro-MMP-9 and active MMP-2 gelatinase activities in BALF (zymography): allopurinol 15 mg/kg s.c. or uricase 0.2 mg/kg i.p.; for Pulmonary alpha-I collagen mRNA content: real time quantitative PCR
Procedure: Mice were injected at day 0 with allopurinol (15 mg/kg, s.c.), uricase (0.2 mg/kg, i.p.) or saline, at 0, 6 and 9 h after BLM instillation (5 mg/kg, i.n.) and every second days during 8 or 14 days to evaluate remodeling and fibrosis. (A) Late inflammation measured as lymphocytes and neutrophils in the BALF at day 8. […] (D) Alpha1 (I) collagen I mRNA in lung was analyzed by real time quantitative polymerase chain reaction (PCR) amplification after uricase or allopurinol treatment 14 days after BLM administration. […] Chromotrope Aniline Blue (CAB) staining, 20× and 200× magnification. (F) The lesions induced by bleomycin were assessed semi-quantitatively by two pathologists as described (see Materials and methods). […] Results are expressed as mean lung fibrotic score±SD. Data represent mean values±SD from 3 independent experiments (n=6 mice per group).
as §2, §5
MMP-2 and MMP-9 levels were determined by gelatin zymography. Briefly, non-reduced supernatant samples of BAL fluid (15 μl) and standards (161-0305, Bio-Rad, Hercule, USA) were loaded onto 7% polyacrylamide gels (wt/vol) incorporating 0.1% (wt/vol) gelatin substrate. The MMP in the gelatinolytic bands were evaluated using as references recombinant murine Pro-MMP-9 (100 Kd) and recombinant murine Pro-MMP-2 (72 Kd). Proteins were subjected to electrophoresis at 20-30 mA for 3 h. The gel was then washed twice in 2.5% Triton (vol/vol), rinsed 3 times quickly with distillated water, and placed 3 times for 20 min in distillated water. Each different wash was performed under gentle stirring. Gels were incubated overnight at 37° C. in 50 mM Tris buffer (containing 5 mM CaCl2 and 2 μM ZnCL2). […] Only these MMP were quantified.
Quantification of alpha-I collagen was described previously (26). Briefly, frozen lung samples were ground to a fine powder, and homogenized in 2 ml of Trizol reagent (In vitrogen Life technology, Paisley, UK). After vigorous shaking, chloroform was added and the samples were centrifuged at 12,000 g for 20 min. Total RNA was precipitated with isopropanol and dissolved in RNAse-free water. RNAs were reverse-transcribed into cDNA using SuperScript™^II (Invitrogen Life technologies, Paisley, UK). Real-time quantitative PCR was performed by fluorescent dye SYBR Green methodology, using SYBR Green PCR Master Mix (Applied Biosystems) and the ABI Prism 7000 apparatus (perkin-Elmer, Foster city, CA, USA).
After BAL and lung perfusion, the large lobe was fixed in 4% buffered formaldehyde for standard microscopic analysis. 3-μm sections were stained with Hematoxylin and Eosin (H&E) or Chromotrope Aniline Blue (CAB) as described previously (3). The severity of the morphological changes (infiltration by neutrophils and mononuclear cells, destruction and thickening of the alveolar septae and fibrosis) were assessed semi-quantitatively using a numeric fibrotic scale (Ashcroft score) (27).

[5] = crystals 15 mg/kg i.n., kinetics
[6] = 24 h after BLM 10 mg/kg i.n., vs vehicle

Molecule	Neutrophil recruitment in BALF [2, 6]	Bleomycin-induced (acute) inflammation, overall [2]	KC production in lung ([2]; vs vehicle)	TIMP-1 production in lung ([2]; vs vehicle)	IL-1β production in lung ([2]; vs vehicle)	Lung fibrotic score (fibrosis with thickening of alveolar septae and inflammation, semi-quantitative) [4]	Alveolar wall destruction, collagen deposition and lung fibrosis on lung sections [4]	Pro-MMP-9 and active MMP-2 gelatinase activities in BALF (zymography) [4]	Pulmonary alpha-I collagen mRNA content [4]	Uric acid levels in lung [2, 6]	Efficacy, repeated administrations versus higher doses ([2]; data not shown)	also measured
Oc1ncnc2[nH]ncc12 [allopurinol crystals, allopurinol]	–	–	–	–	–	–	–	–	–	–	–	Neutrophil recruitment into the BALF ([1]; 6 h after crystals instillation 15 mg/kg i.n.): only little neutrophil recruitment
O=c1[nH]c(=O)c2[nH]c(=O)[nH]c2[nH]1 [uric acid crystals, uric acid]	–	–	–	–	–	–	–	–	–	–	–	Time at which inflammation was resolved [1, 5]: 14 days; Time of maximum of inflammation (cell recruitment in BALF) [1, 5]: 6 h; Pulmonary TIMP-1 at day 14 ([1]; day 14 after crystals, data not shown): returned to basal levels; Cell recruitment in BALF (macrophages, neutrophils) ([1]; intranasal crystals, dose response): dose-dependent cell recruitment; Pulmonary TIMP-1 ([1]; lung homogenates after i.n. increasing doses of crystals): induced pulmonary TIMP-1 expression; also recorded: dose-dependently induced
z-YVAD-fmk	reduced	reduced	reduced	reduced	reduced	–	–	–	–	–	–	–
Anakinra: IL-1 receptor antagonist, IL-1Ra (Anakinra, Amgen)	–	–	–	–	–	–	–	–	–	–	–	Inflammatory response to uric acid crystals (neutrophil influx in BAL) ([1]; 6 h after UA crystals 15 mg/kg i.n., anakinra 10 mg/kg): drastically reduced; Bleomycin-induced lung inflammation, overall [3]: attenuated
Oc1ncnc2[nH]ncc12 [allopurinol]	reduced	greatly inhibited	diminished	diminished	diminished	significantly reduced	significantly reduced	significantly reduced and less	inhibited	prevented the increase; also recorded: prevented uric acid increases	repeated administrations were more effective than higher doses	Late lymphocyte and neutrophil recruitment in the BALF ([4]; day 8 after BLM 5 mg/kg i.n., allopurinol 15 mg/kg s.c. at 0, 6, 9 h and every second day): reduced; Late production of TIMP-1 in lung homogenates and BALF ([4]; day 8 after BLM 5 mg/kg i.n., allopurinol 15 mg/kg s.c., BALF data not shown): inhibited; Total cell counts in BALF ([2]; 24 h after BLM 10 mg/kg i.n., allopurinol 25 mg/kg s.c. at 0, 6 and 9 h, vs vehicle): reduced; IL-1β, KC and TIMP-1 in the BALF ([2]; after BLM, allopurinol treatment, data not shown): diminished; KC production in lung ([2]; vs vehicle, listed as Allopurinol): reduced
uricase: recombinant enzyme uricase (Fasturtec, Sanofi Synthelabo), degrades uric acid into soluble allantoin (protein, UniProt Q00511 2-302, looked up) Uricase: SAVKAARYGKDNVRVYKVHKDEKTGVQTVYEMTVCVLLEGEIETSYTKADNSVIVATDSIKNTIYITAKQNPVTPPELFGSILGTHFIEKYNHIHAAHVNIVCHRWTRMDIDGKPHPHSFIRDSEEKRNVQVDVVEGKGIDIKSSLSGLTVLKSTNSQFWGFLRDEYTTLKETWDRILSTDVDATWQWKNFSGLQEVRSHVPKFDATWATAREVTLKTFAEDNSASVQATMYKMAEQILARQQLIETVEYSLPNKHYFEIDLSWHKGLQNTGKNAEVFAPQSDPNGLIKCTVGRSSLKSKL	reduced	–	–	–	reduced	significantly reduced	significantly reduced	significantly reduced and less	inhibited	reduced	repeated administrations were more effective than higher doses	–
